Values quoted from earlier work as cited in PMC5742115, “Pharmacophore Modeling and in Silico/in Vitro Screening for Human Cytochrome P450 11B1 and Cytochrome P450 11B2 Inhibitors” (Frontiers in Chemistry, 2017).
Where two headings read alike, the source gives them in different places.

Legend:
CYP11B1 = conditions: reported activity, supplementary Table 1, read-out: CYP11B1 IC50, cited from earlier work
CYP11B2 = conditions: reported activity, supplementary Table 1, read-out: CYP11B2 IC50, cited from earlier work

| Structure (SMILES) | IC50 (CYP11B1; ref Hille et al., 2011b) [nM] | IC50 (CYP11B2; ref Hille et al., 2011b) [nM] | IC50 (CYP11B1; ref Lucas et al., 2011) [nM] | IC50 (CYP11B2; ref Lucas et al., 2011) [nM] | other results |
| --- | --- | --- | --- | --- | --- |
| N#Cc1ccc(Cn2cncc2-c2ccccc2F)cc1 [CHEMBL599603] |  |  |  |  | IC50 (CYP11B1; ref Roumen et al., 2010): 20 nM; IC50 (CYP11B2; ref Roumen et al., 2010): 2.3 nM |
| COC(=O)CCc1cncn1Cc1ccc(F)cc1 [CHEMBL599622] |  |  |  |  | IC50 (CYP11B1; ref Roumen et al., 2010): 104 nM; IC50 (CYP11B2; ref Roumen et al., 2010): 50 nM |
| Cc1cccc(-c2cncn2Cc2ccc(C#N)cc2)c1 [CHEMBL607862] |  |  |  |  | IC50 (CYP11B1; ref Roumen et al., 2010): 6.2 nM; IC50 (CYP11B2; ref Roumen et al., 2010): 5.2 nM |
| Fc1ccc(Cn2cncc2-c2ccccc2)cc1 [CHEMBL610501] |  |  |  |  | IC50 (CYP11B1; ref Roumen et al., 2010): 16 nM; IC50 (CYP11B2; ref Roumen et al., 2010): 11 nM |
| Cc1ccccc1-c1cncn1Cc1ccc(C#N)cc1 [CHEMBL610513] |  |  |  |  | IC50 (CYP11B1; ref Roumen et al., 2010): 5.7 nM; IC50 (CYP11B2; ref Roumen et al., 2010): 3.7 nM |
| N#Cc1ccc(Cn2cncc2C=O)cc1 [CHEMBL611680] |  |  |  |  | IC50 (CYP11B1; ref Roumen et al., 2010): 478 nM; IC50 (CYP11B2; ref Roumen et al., 2010): 62 nM |
| O=c1c2ccccc2oc2cccc(Cn3ccnc3)c12 [CHEMBL1083652] |  |  |  |  | IC50 (CYP11B1; ref Gobbi et al., 2013): 99.1 nM; IC50 (CYP11B2; ref Gobbi et al., 2013): 114 nM |
| c1ccc(-c2ccc(Cn3ccnc3)cc2)cc1 [CHEMBL1235146] | 32 | 637 |  |  |  |
| Cc1cc(C)c(Cn2ccnc2)c(C)c1 [CHEMBL1649605] | 24 | 30 |  |  |  |
| Cc1ccccc1Cn1ccnc1 [CHEMBL1651492] | 61 | 62 |  |  |  |
| Cc1cccc(Cn2ccnc2)c1 [CHEMBL1651493] | 48 | 110 |  |  |  |
| Cc1cc(C)cc(Cn2ccnc2)c1 [CHEMBL1651494] | 32 | 77 |  |  |  |
| Cc1c(C)c(C)c(Cn2ccnc2)c(C)c1C [CHEMBL1651495] | 5 | 23 |  |  |  |
| c1ccc(-c2ccccc2Cn2ccnc2)cc1 [CHEMBL1651496] | 15 | 39 |  |  |  |
| c1ccc(-c2cccc(Cn3ccnc3)c2)cc1 [CHEMBL1651497] | 46 | 265 |  |  |  |
| c1cn(CC23CC4CC(CC(C4)C2)C3)cn1 [CHEMBL1651505] | 5 | 30 |  |  |  |
| c1ccc(C(c2ccccc2)(c2ccccc2)n2ccnc2)cc1 [CHEMBL1651507] | 3 | 11 |  |  |  |
| c1ccc(C(Cn2ccnc2)(c2ccccc2)c2ccccc2)cc1 [CHEMBL1651508] | 4 | 8 |  |  |  |

| Structure (SMILES) | IC50 (CYP11B1; ref Hille et al., 2011b) [nM] | IC50 (CYP11B2; ref Hille et al., 2011b) [nM] | IC50 (CYP11B1; ref Lucas et al., 2011) [nM] | IC50 (CYP11B2; ref Lucas et al., 2011) [nM] | other results |
| --- | --- | --- | --- | --- | --- |
| c1ccc(C(CCn2ccnc2)(c2ccccc2)c2ccccc2)cc1 [CHEMBL1651509] | 80 | 290 |  |  |  |
| c1ccc(-c2ccc(Cn3ccnc3)o2)cc1 [CHEMBL1651513] | 46 | 372 |  |  |  |
| c1ccc(-c2ccc(Cn3ccnc3)s2)cc1 [CHEMBL1651514] | 43 | 353 |  |  |  |
| O=C1CCc2cc(-c3cccnc3)cc3c2N1CC3 [CHEMBL1765205] |  |  | 715 | 1.1 |  |
| O=C1CCc2cc(-c3cccnc3)cc3c2N1CCC3 [CHEMBL1765206] |  |  | 2300 | 2.4 |  |
| COc1cncc(-c2cc3c4c(c2)CCN4C(=O)CC3)c1 [CHEMBL1765207] |  |  | 247 | 0.6 |  |
| COc1cncc(-c2cc3c4c(c2)CCC(=O)N4CCC3)c1 [CHEMBL1765208] |  |  | 545 | 0.9 |  |
| CCOc1cncc(-c2cc3c4c(c2)CCN4C(=O)CC3)c1 [CHEMBL1765209] |  |  | 158 | 1 |  |
| CC(C)Oc1cncc(-c2cc3c4c(c2)CCN4C(=O)CC3)c1 [CHEMBL1765210] |  |  | 103 | 2.2 |  |
| O=C1CCc2cc(-c3cncc(O)c3)cc3c2N1CC3 [CHEMBL1765211] |  |  | 2040 | 4.3 |  |
| O=C1CCc2cc(-c3cncc(F)c3)cc3c2N1CC3 [CHEMBL1765212] |  |  | 1290 | 4.4 |  |
| O=C1CCc2cc(-c3cncc(C(F)(F)F)c3)cc3c2N1CC3 [CHEMBL1765213] |  |  | 141 | 5.9 |  |
| O=C1CCc2cc(-c3cncc4ccccc34)cc3c2N1CC3 [CHEMBL1765214] |  |  | 13 | 0.2 |  |
| O=C1CCc2cc(-c3cncc4ccccc34)cc3c2N1CCC3 [CHEMBL1765215] |  |  | 34 | 0.2 |  |
| O=C1CCc2cc(-c3cncnc3)cc3c2N1CC3 [CHEMBL1765217] |  |  | 28500 | 56 |  |
| O=C1CCc2cc(-n3ccnc3)cc3c2N1CC3 [CHEMBL1765218] |  |  | 2080 | 89 |  |
| O=C1CCc2cc(-c3cncc(-c4ccccc4)c3)cc3c2N1CC3 [CHEMBL1765219] |  |  | 58 | 1.3 |  |
